Laboratory results published in patent US20240115705A1, “Regulation of Butyrophilin subfamily 3 member A1 (BTN3A1, CD277)” (The J. Gladstone Institutes, a testamentary trust …, priority 2021, published 2024).

Tests used:
BTN3A = assay: Inhibitor dose response, surface BTN3A by flow cytometry in WT Daudi-Cas9 cells; format: cell-based, human; settings: 72 hours, complete RPMI, vs vehicle
Procedure: Daudi-Cas9 cells (180 μL) were seeded at 275,000 cells/mL in cRPMI in round-bottom 96-well plates. Twenty μL of zoledronate, rotenone (MedChemExpress), oligomycin A (Neta Scientific), FCCP (MedChemExpress), antimycin A (Neta Scientific), AICAR (Sigma), 2-DG (Sigma), Compound 991 (Selleck Chemical), A-769662 (Sigma), ethanol (vehicle), or DMSO (vehicle, at dilutions matching the treatment) at various concentrations were added to the cells. Plate edge wells were filled with 200 μL of sterile water or PBS. The cells were grown at 37° C. for 72 hours, and stained with APC-conjugated anti-human CD277 antibody (clone BT3.1, 1:50 dilution)(Miltenyi Biotec) and 7-AAD (1:150 dilution) (Tonbo). The cells were then analyzed on the Attune NxT flow cytometer.

Daudi-Cas9 cells = assay: Cancer-T cell co-culture genome-wide CRISPR knockout screen (Vγ9Vδ2 T cell killing); format: cell-based, human; settings: for score: MAGeCK sgRNA test, co-culture screen; for LFC: log-fold change of sgRNA, surviving cells after co-culture vs baseline; for LFC / treat mean: MAGeCK; for treat mean: sgRNA abundance in surviving Daudi-Cas9 KO cells after 24 hours Vγ9Vδ2 T cell co-culture with zoledronate; for high_in_treatment: sgRNA enriched (TRUE) or depleted (FALSE) after T cell co-culture

| Molecule | surface BTN3A (MFI) (BTN3A) | score (Daudi-Cas9 cells) | LFC (Daudi-Cas9 cells) | treat mean (Daudi-Cas9 cells) | high_in_treatment (Daudi-Cas9 cells) |
| --- | --- | --- | --- | --- | --- |
| O=P(O)(O)C(O)(Cn1ccnc1)P(=O)(O)O [ZOL, zoledronate] | substantial and dose-dependent increase in BTN3A |  |  |  |  |
| O=CC[C@@H](O)[C@H](O)[C@H](O)CO [2-DG, 2-deoxy-D-glucose] | upregulated BTN3A levels |  |  |  |  |
| antimycin A | highest BTN3A upregulation |  |  |  |  |
| CC[C@H]1/C=C/C=C/C[C@@H](C)[C@H](O)[C@@](C)(O)C(=O)[C@@H](C)[C@H](O)[C@@H](C)C(=O)[C@@H](C)[C@H](O)[C@@H](C)/C=C/C(=O)O[C@@H]2[C@H](C)[C@H](CC1)O[C@]1(CC[C@H](C)[C@H](C[C@@H](C)O)O1)[C@H]2C [oligomycin A] | highest BTN3A upregulation |  |  |  |  |
| C=C(C)[C@H]1Cc2c(ccc3c2O[C@@H]2COc4cc(OC)c(OC)cc4[C@@H]2C3=O)O1 [rotenone] | BTN3A upregulation at two lower doses and a downregulation at one higher dose |  |  |  |  |
| BTN3A1_AGGGAACTTCTGATGGTAC: library sgRNA targeting BTN3A1 (listed as DNA, chemistry not fully specified) |  | 8.7326 | 1.7308 | 3095 | TRUE |
| UGGT2_TTCGCAATCTTGGGATCAA: library sgRNA targeting UGGT2 (listed as DNA, chemistry not fully specified) |  | 8.3503 | 1.6772 | 3035.8 | TRUE |
| ACACA_GTTAGAGACGCTATTCCGC: library sgRNA targeting ACACA (listed as DNA, chemistry not fully specified) |  | 7.4534 | −5.2135 | 104.65 | FALSE |
| SPIB_GGGTACGGGGCATATGCCG: library sgRNA targeting SPIB (as printed in the source, key not given here) |  | 10.693 | 1.7824 | 4360 | TRUE |
| BTN3A2_ACGTCACAGCCTCTGACAG: library sgRNA targeting BTN3A2 (listed as DNA, chemistry not fully specified) |  | 17.862 | 2.2137 | 7396.6 | TRUE |
| ACAT2_CAGTCCAGTCAATAGGGAT: library sgRNA targeting ACAT2 (listed as DNA, chemistry not fully specified) |  | 12.759 | 2.0827 | 4335.4 | TRUE |
| IRF1_TGCCTGTTTGTTCCGGAGC: library sgRNA targeting IRF1 (as printed in the source, key not given here) |  | 11.386 | 1.4325 | 8072.2 | TRUE |
| RFXAP_CGTTAGGTACCTGTGCGAA: library sgRNA targeting RFXAP (listed as DNA, chemistry not fully specified) |  | 7.0414 | 1.5428 | 2592.9 | TRUE |
| ARL14EPL_TTAATAGCAACAAATAGAG: library sgRNA targeting ARL14EPL (listed as DNA, chemistry not fully specified) |  | 7.215 | 3.9422 | 227.01 | TRUE |
| RPP38_CGATTCTCTCACTGAGCCG: library sgRNA targeting RPP38 (as printed in the source, key not given here) |  | 7.8058 | −3.1996 | 558.49 | FALSE |
| DNLZ_CAGCTCGTCTACACCTGCA: library sgRNA targeting DNLZ (as printed in the source, key not given here) |  | 6.2683 | −8.2244 | 6.7801 | FALSE |
| GGNBP2_GTATGGGAACTAATGTCGC: library sgRNA targeting GGNBP2 (listed as DNA, chemistry not fully specified) |  | 6.4369 | 1.4472 | 2491.2 | TRUE |
| EEFSEC_TCATCCGGACCATCATCGG: library sgRNA targeting EEFSEC (listed as DNA, chemistry not fully specified) |  | 6.18 | −4.9819 | 83.299 | FALSE |

| Molecule | surface BTN3A (MFI) (BTN3A) | score (Daudi-Cas9 cells) | LFC (Daudi-Cas9 cells) | treat mean (Daudi-Cas9 cells) | high_in_treatment (Daudi-Cas9 cells) |
| --- | --- | --- | --- | --- | --- |
| EEFSEC_TCACGCTGGTCGACTGCCC: library sgRNA targeting EEFSEC (listed as DNA, chemistry not fully specified) |  | 6.5622 | −8.5255 | 6.8247 | FALSE |
| IRF1_GGAAGCATGCTGCCAAGCA: library sgRNA targeting IRF1 (as printed in the source, key not given here) |  | 8.5638 | 1.6107 | 3499.5 | TRUE |
| SNF8_ACCATTGGCGTGGATCCGC: library sgRNA targeting SNF8 (as printed in the source, key not given here) |  | 6.4788 | −6.2459 | 35.261 | FALSE |
| BTN2A2_TGTGCACTGGTCTCAGGTA: library sgRNA targeting BTN2A2 (listed as DNA, chemistry not fully specified) |  | 13.201 | 2.0744 | 4689.1 | TRUE |
| ACAT2_CAAGTGAGTAGAGAAGATC: library sgRNA targeting ACAT2 (listed as DNA, chemistry not fully specified) |  | 6.1049 | 1.9893 | 1085.8 | TRUE |
| SPIB_CCTCGTGGCTGGCCCCGAG: library sgRNA targeting SPIB (as printed in the source, key not given here) |  | 7.9175 | 1.2165 | 5523.4 | TRUE |
| SPI1_CACGTCCTCGATACCCCCA: library sgRNA targeting SPI1 (as printed in the source, key not given here) |  | 9.6891 | 1.4776 | 5441.8 | TRUE |
| PRMT1_TGGTGCTGGACGTCGGCTC: library sgRNA targeting PRMT1 (listed as DNA, chemistry not fully specified) |  | 6.7595 | −8.6196 | 6.7801 | FALSE |
| XPNPEP1_GGACTTGTAGGGATGCACC: library sgRNA targeting XPNPEP1 (as printed in the source, key not given here) |  | 6.7154 | 1.4173 | 2841.3 | TRUE |
| RAB7A_CGGTTCCAGTCTCTCGGTG: library sgRNA targeting RAB7A (listed as DNA, chemistry not fully specified) |  | 6.2219 | −4.046 | 175.17 | FALSE |
| N6AMT1_AGCAGAAACGTGTCCTCCG: library sgRNA targeting N6AMT1 (listed as DNA, chemistry not fully specified) |  | 6.0901 | −3.683 | 224.71 | FALSE |
| N#Cc1c(O)c2c(-c3ccc(-c4ccccc4O)cc3)csc2[nH]c1=O [A-769662] | Upregulation of surface BTN3A |  |  |  |  |
| N#CC(C#N)=NNc1ccc(OC(F)(F)F)cc1 [FCCP, carbonyl cyanide-4 (trifluoromethoxy) phenylhydrazone] | highest BTN3A upregulation |  |  |  |  |
| BTN3A1_TGCTGCTTCTTGGGGGAGC: library sgRNA targeting BTN3A1 (listed as DNA, chemistry not fully specified) |  | 17.532 | 2.0651 | 8413.1 | TRUE |
| IRF1_CTAGGCCGATACAAAGCAG: library sgRNA targeting IRF1 (as printed in the source, key not given here) |  | 9.7786 | 1.6906 | 4103.9 | TRUE |
| MRPS26_CCCCCGGCCGCACACCTGA: library sgRNA targeting MRPS26 (as printed in the source, key not given here) |  | 7.3571 | −3.3597 | 431.96 | FALSE |
| BTN2A1_TCTTGGAAGTAACAGCGGT: library sgRNA targeting BTN2A1 (listed as DNA, chemistry not fully specified) |  | 18.758 | 2.4492 | 6366.6 | TRUE |
